Experiments:
[1] = target: Thymidine kinase 2, mitochondrial (Homo sapiens) (UniProt O00142); test: Inhibitory effect against phosphorylation of [methyl-3H]dThd by Thymidine Kinase 2 (TK-2)
[2] = target: Thymidine kinase (Human herpesvirus 1); test: Inhibitory activity against HSV-1 Thymidine kinase in OST-TK-/HSV-1 TK+ cell line in combination with gancicclovir
[3] = target: Thymidine kinase (Human herpesvirus 1); test: Inhibitory activity against HSV-1 Thymidine kinase in OST-TK-/HSV-1 TK+ cell line in combination with BVAraU
[4] = target: Thymidine kinase (Human herpesvirus 1); test: Compound was evaluated for inhibitory effect against phosphorylation of [methyl-3H]dThd by HSV-1 Thymidine kinase

Chain of Thymidine kinase 2, mitochondrial (Homo sapiens) (O00142 whole entry, looked up): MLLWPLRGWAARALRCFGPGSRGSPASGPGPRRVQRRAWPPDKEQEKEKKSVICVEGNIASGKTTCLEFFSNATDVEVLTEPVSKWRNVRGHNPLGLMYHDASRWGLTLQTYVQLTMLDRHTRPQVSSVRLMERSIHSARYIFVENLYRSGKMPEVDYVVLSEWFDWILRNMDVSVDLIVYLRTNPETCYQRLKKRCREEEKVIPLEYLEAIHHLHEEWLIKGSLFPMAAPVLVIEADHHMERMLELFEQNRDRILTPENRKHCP

Row | SMILES | IC50 [1] | also measured
1 | Cc1cn(Cc2ccccc2COC(c2ccccc2)(c2ccccc2)c2ccccc2)c(=O)[nH]c1=O [5-Methyl-1-(2-trityloxymethyl-benzyl)-1H-pyrimidine-2,4-dione] |  | IC50 [2]: 0.002 µM; IC50 [3]: 0.008 µM
2 | COc1ccc(C(OCC2OC(n3cc(C)c(=O)[nH]c3=O)CC2O)(c2ccccc2)c2ccc(OC)cc2)cc1 (stereo not drawn) [1-{5-[Bis-(4-methoxy-phenyl)-phenyl-methoxymethyl]-4-hydroxy-tetrahydro-furan-2-yl}-5-methyl-1H-pyrimidine-2,4-dione] |  | IC50 [4]: 14 µM
3 | Cc1cn(CC#CCOC(c2ccccc2)(c2ccccc2)c2ccccc2)c(=O)[nH]c1=O [5-Methyl-1-(4-trityloxy-but-2-ynyl)-1H-pyrimidine-2,4-dione] |  | IC50 [4]: 3.1 µM
4 | Cc1cn(C/C=C\COC(=O)C(C)(C)C)c(=O)[nH]c1=O [2,2-Dimethyl-propionic acid 4-(5-methyl-2,4-dioxo-3,4-dihydro-2H-pyrimidin-1-yl)-but-2-enyl ester] | 40 µM | 

Continued, in another order:

Row | IC50 [1] | SMILES | also measured
5 | 4.6 µM | Cc1cn(C/C=C\COC(=O)C(c2ccccc2)c2ccccc2)c(=O)[nH]c1=O [Diphenyl-acetic acid 4-(5-methyl-2,4-dioxo-3,4-dihydro-2H-pyrimidin-1-yl)-but-2-enyl ester] | 
6 | 22 µM | Cc1cn(C/C=C\COCc2ccccc2)c(=O)[nH]c1=O [1-(4-Benzyloxy-but-2-enyl)-5-methyl-1H-pyrimidine-2,4-dione] | 
7 | 30 µM | Cc1cn(C/C=C\COC(=O)c2ccccc2)c(=O)[nH]c1=O [Benzoic acid 4-(5-methyl-2,4-dioxo-3,4-dihydro-2H-pyrimidin-1-yl)-but-2-enyl ester] | 
